Measurements reported in US5045549A, “Substituted 4-pyridone 3-carboxylic acid derivatives, method for their production and their pharmaceutical compositions” (priority 1986, dated 1991).
Converted amounts (≈) assume the structure as drawn. Like-named read-outs stand apart in the source and are kept apart here.

Tests used:
Test in all cases: MIC agar dilution assay (Table III)
Type in all cases: cell-based
ENTERO CLO = settings: 18 h, read-out: MINIMAL INHIBITORY CONC.
Protocol: (§1) TEST: 406 METHOD: AGAR DIL
(§2) MEDIUM: MUEL-HIN INOCULUM: 1.OE+04 - 5.OE+04
(§3) INCUBATION: 18 Hrs. 35 Celsius

STAPH AUR = settings: 18 h, read-out: MINIMAL INHIBITORY CONC.
Protocol: as §1, §2, §3

KLEB PNEUM = settings: 18 h, read-out: MINIMAL INHIBITORY CONC.
Protocol: as §1, §2, §3

SERRAT MARC = settings: 18 h, read-out: MINIMAL INHIBITORY CONC.
Protocol: as §1, §2, §3

PROT RETT = settings: 16 PROT RETT IO 83 21; 18 Hrs, 35 Celsius; read-out: MINIMAL INHIBITORY CONC.
Protocol: as §1, §2, §3

MORG MORG = settings: 18 h, read-out: MINIMAL INHIBITORY CONC.
Protocol: as §1, §2, §3

STREP FAEC = settings: 18 h, read-out: MINIMAL INHIBITORY CONC.
Protocol: (§4) The results are summarized in Table III. |TEST: 406 METHOD: […] |MEDIUM: […] |INCUBATION: 18 Hrs. 35 Celsius | Aerobic: T

PSEU AERUG = settings: 18 h, read-out: MINIMAL INHIBITORY CONC.
Protocol: as §4

ESCH COLI = settings: 18 h, read-out: MINIMAL INHIBITORY CONC.
Protocol: as §4

CITRO DIV = settings: 18 CITRO DIV K 82 24; 18 Hrs, 35 Celsius; read-out: MINIMAL INHIBITORY CONC.
Protocol: as §4

PROV STUA = settings: 17 PROV STUA CMC 83 3; 18 Hrs, 35 Celsius; read-out: MINIMAL INHIBITORY CONC.
Protocol: as §4

[1] = 7 ENTERO CLO VGH 84 39, 35 Celsius
[2] = 8 ENTERO CLO K 84 10, 35 Celsius
[3] = 9 ENTERO CLO MOR 84 30, 35 Celsius
[4] = 22 STAPH AUR VGH 84 47, 35 Celsius
[5] = 23 STAPH AUR K 82 26, 35 Celsius
[6] = 24 STAPH AUR CMC 83 131, 35 Celsius
[7] = 29 STAPH AUR ATCC 29213, 35 Celsius
[8] = 4 KLEB PNEUM CMC 84 31, 35 Celsius
[9] = 5 KLEB PNEUM MOR 84 24, 35 Celsius
[10] = 6 KLEB PNEUM IO 83 5, 35 Celsius
[11] = 10 SERRAT MARC MOR 84 41, 35 Celsius
[12] = 11 SERRAT MARC CMC 83 74, 35 Celsius
[13] = 12 SERRAT MARC IO 83 63, 35 Celsius
[14] = 13 MORG MORG VGH 84 12, 35 Celsius
[15] = 14 MORG MORG CMC 84 38, 35 Celsius
[16] = 15 MORG MORG MOR 84 45, 35 Celsius
[17] = 25 STREP FAEC UCI 85 30, 35 Celsius
[18] = 26 STREP FAEC VGH 84 69, 35 Celsius
[19] = 27 STREP FAEC CMC 83 120, 35 Celsius
[20] = 19 PSEU AERUG K 84 16, 35 Celsius
[21] = 20 PSEU AERUG VGH 84 3, 35 Celsius
[22] = 21 PSEU AERUG CMC 83 20, 35 Celsius
[23] = 1 ESCH COLI MOR 84 20, 35 Celsius
[24] = 2 ESCH COLI VGH 84 19, 35 Celsius
[25] = 3 ESCH COLI CMC 84 50, 35 Celsius
[26] = 28 ESCH COLI ATCC 25922, 35 Celsius

| Compound | MIC (ENTERO CLO; [1]) [µg/mL] | MIC (ENTERO CLO; [2]) [µg/mL] | MIC (ENTERO CLO; [3]) [µg/mL] | MIC (STAPH AUR; [4]) [µg/mL] | MIC (STAPH AUR; [5]) [µg/mL] | MIC (STAPH AUR; [6]) [µg/mL] | MIC (STAPH AUR; [7]) [µg/mL] | MIC (KLEB PNEUM; [8]) [µg/mL] | MIC (KLEB PNEUM; [9]) [µg/mL] | MIC (KLEB PNEUM; [10]) [µg/mL] | MIC (SERRAT MARC; [11]) [µg/mL] | MIC (SERRAT MARC; [12]) [µg/mL] | MIC (SERRAT MARC; [13]) [µg/mL] | MIC (PROT RETT) [µg/mL] | MIC (MORG MORG; [14]) [µg/mL] | MIC (MORG MORG; [15]) [µg/mL] | MIC (MORG MORG; [16]) [µg/mL] | MIC (STREP FAEC; [17]) [µg/mL] | MIC (STREP FAEC; [18]) [µg/mL] | MIC (STREP FAEC; [19]) [µg/mL] | also measured |
| --- | --- | --- | --- | --- | --- | --- | --- | --- | --- | --- | --- | --- | --- | --- | --- | --- | --- | --- | --- | --- | --- |
| CN1CC2CC1CN2c1cc2c(cc1F)c(=O)c(C(=O)O)cn2-c1ccc(F)cc1F (stereo not shown) [Example 9, 6-Fluoro-1-(2,4-difluorophenyl)-1,4-dihydro7-(5-methyl-2,5-diazabicyclo(2.2.1)hept-2-yl)-4-oxoquinoline-3-carboxylic acid] | 0.06 (≈ 0.14 µM) | 0.03 (≈ 0.0699 µM) | 0.06 (≈ 0.14 µM) | 0.03 (≈ 0.0699 µM) | 0.015 (≈ 0.0349 µM) | 0.5 (≈ 1.16 µM) | 0.03 (≈ 0.0699 µM) | 0.06 (≈ 0.14 µM) | 0.06 (≈ 0.14 µM) | 0.12 (≈ 0.279 µM) | 0.12 (≈ 0.279 µM) | 4 (≈ 9.32 µM) | 0.5 (≈ 1.16 µM) | 0.06 (≈ 0.14 µM) | 0.25 (≈ 0.582 µM) | 0.25 (≈ 0.582 µM) | 0.12 (≈ 0.279 µM) | 0.5 (≈ 1.16 µM) | 0.5 (≈ 1.16 µM) | 0.5 (≈ 1.16 µM) | MIC (PSEU AERUG; [20]): 1 µg/mL (≈ 2.33 µM); MIC (PSEU AERUG; [21]): 4 µg/mL (≈ 9.32 µM); MIC (PSEU AERUG; [22]): 0.5 µg/mL (≈ 1.16 µM); MIC (ESCH COLI; [23]): 0.015 µg/mL (≈ 0.0349 µM); MIC (ESCH COLI; [24]): 0.015 µg/mL (≈ 0.0349 µM); MIC (ESCH COLI; [25]): 0.06 µg/mL (≈ 0.14 µM); MIC (ESCH COLI; [26]): 0.03 µg/mL (≈ 0.0699 µM); MIC (CITRO DIV): 0.03 µg/mL (≈ 0.0699 µM); MIC (PROV STUA): 4 µg/mL (≈ 9.32 µM) |
| O=C(O)c1cn(-c2ccc(F)cc2F)c2cc(N3CC4CC3CN4)c(F)cc2c1=O (stereo not shown) [Example 11, 7-(2,5-diazabicyclo(2.2.1)hept-2-yl)-6-fluoro-1-(2,4-difluorophenyl)-1,4-dihydro-4-oxoquinoline3-carboxylic acid] | 0.03 (≈ 0.0722 µM) | 0.015 (≈ 0.0361 µM) | 0.03 (≈ 0.0722 µM) | 0.25 (≈ 0.602 µM) | 0.12 (≈ 0.289 µM) | 0.25 (≈ 0.602 µM) | 0.25 (≈ 0.602 µM) | 0.03 (≈ 0.0722 µM) | 0.06 (≈ 0.144 µM) | 0.06 (≈ 0.144 µM) | 0.06 (≈ 0.144 µM) | 4 (≈ 9.63 µM) | 0.25 (≈ 0.602 µM) | 0.03 (≈ 0.0722 µM) | 0.06 (≈ 0.144 µM) | 0.12 (≈ 0.289 µM) | 0.03 (≈ 0.0722 µM) | 0.5 (≈ 1.2 µM) | 0.5 (≈ 1.2 µM) | 0.5 (≈ 1.2 µM) | MIC (PSEU AERUG; [20]): 0.5 µg/mL (≈ 1.2 µM); MIC (PSEU AERUG; [21]): 1 µg/mL (≈ 2.41 µM); MIC (PSEU AERUG; [22]): 0.25 µg/mL (≈ 0.602 µM); MIC (ESCH COLI; [23]): 0.008 µg/mL (≈ 0.0193 µM); MIC (ESCH COLI; [24]): 0.008 µg/mL (≈ 0.0193 µM); MIC (ESCH COLI; [25]): 0.03 µg/mL (≈ 0.0722 µM); MIC (ESCH COLI; [26]): 0.008 µg/mL (≈ 0.0193 µM); MIC (CITRO DIV): 0.008 µg/mL (≈ 0.0193 µM); MIC (PROV STUA): 2 µg/mL (≈ 4.81 µM) |
